Columns and labels:
aldose reductase = biological target: T1, aldose reductase (Homo sapiens, UniProt P15121); test: Inhibition of aldose reductase enzyme activity (procedure of Hayman et al. as modified by Sestanj et al.); type: biochemical; conditions: for inhibition at 10 µM: 10^-5 M; for inhibition at 1 µM: 10^-6 M; for inhibition at 0.1 µM: 10^-7 M; for aldose reductase inhibition (in words): qualitative statement
T1 construct: partially purified aldose reductase enzyme obtained from human placenta; from tissue; host or cells: human placenta
Method: (§1) The activity of the compounds of the present invention, as agents for the control of chronic diabetic complications, is determined by their ability to successfully pass one or more of the following standard biological or pharmacological tests, viz., (1) measuring their ability to inhibit the enzyme activity of isolated aldose reductase; (2) measuring their ability to reduce or inhibit sorbitol accumulation in the sciatic nerve and lens of acutely streptozotocinized (i.e., diabetic) rats; (3) measuring their ability to reverse already-elevated sorbitol levels in the sciatic nerve and lens of chronic streptozotocin-induced diabetic rats; (4) measuring their ability to prevent or inhibit galactitol formation in the lens of acutely galactosemic rats, and (5) measuring their ability to delay cataract formation and reduce the severity of lens opacities in chronic galactosemic rats.
The following 5-substituted imidzolidinedione derivatives of Examples 1 and 4, respectively, were tested for their ability to reduce or inhibit aldose reductase enzyme activity via the procedure of S. Hayman et al., as described in the Journal of Biological Chemistry, Vol. 240, p. 877 (1965) and as modified by K. Sestanj et al. in U.S. Pat. No. 3,821,383. In each case, the substrate employed was partially purified aldose reductase enzyme obtained from human placenta.

[1] = tested on: sorbitol levels in nerve and lens of diabetic subjects; test: Lowering of sorbitol levels in sciatic/peripheral nerve and lens of diabetic subjects (general statement); type: in vivo; conditions: qualitative statement
Method: as §1

[2] = tested on: sorbitol accumulation in the sciatic nerve; test: Inhibition of sorbitol accumulation in the sciatic nerve of streptozotocinized (diabetic) rats; type: in vivo, rat
Source text: (§2) As previously indicated, the 5-substituted imidazolidinedione compounds of this inventon are readily adapted to therapeutic use as aldose reductase inhibitors for the control of certain chronic diabetic complications, in view of their ability to reduce lens and peripheral nerve sorbitol levels in diabetic subjects to a statistically significant degree. […] Furthermore, the herein described compounds of this invention can be administered by either the oral, topical or parenteral routes of administration. […]
as §1, with “rats. […]” for “rats.”

[3] = tested on: sorbitol accumulation in the lens; test: Inhibition of sorbitol accumulation in the lens of streptozotocinized (diabetic) rats; type: in vivo, rat
Source text: as §2
as §1, with “rats. […]” for “rats.”

[4] = partially purified enzyme from human placenta, read-out: Percent Inhibition of aldose reductase activity
[5] = 25 mg./kg. orally at 4, 8 and 24 hours after streptozotocin, measured at 27 hours, vs untreated control
[6] = diabetic rats, oral, 25 mg./kg.

Row | SMILES | inhibition at 100 µM (aldose reductase; 10^-4 M, partially purified enzyme from human placenta, read-out: Percent Inhibition of aldose reductase activity) | inhibition at 10 µM (aldose reductase; [4]) | inhibition at 1 µM (aldose reductase; [4]) | inhibition at 0.1 µM (aldose reductase; [4]) | aldose reductase inhibition (in words) (aldose reductase) | lowering sorbitol levels in the sciatic nerve and lens of diabetic subjects (in words) [1] | reduction in the accumulated sorbitol levels in the sciatic nerve [2, 5] | inhibition of the formation of sorbitol levels in the sciatic nerve (in words) [2, 6] | inhibition at 0.01 µM (aldose reductase; 10^-8 M, partially purified enzyme from human placenta, read-out: Percent Inhibition of aldose reductase activity) | reduction in the accumulated sorbitol levels in the lens [3, 5] | inhibition of the formation of sorbitol levels in the lens (in words) [3, 6]
1 | O=C1NC(=O)C(N2C(=O)c3cccc4cccc(c34)C2=O)N1 (stereo not shown) [Example 1, 5-naphthalimido-imidazolidine-2,4-dione] | 100% | 59% | 17% | 6% | potent aldose reductase inhibitors | effective in lowering sorbitol levels |  |  |  |  | 
2 | O=C1NC(=O)C(c2nn(Cc3ccc(Br)cc3F)c(=O)c3ccccc23)N1 (stereo not shown) [Example 4, 5-[3-(4'-bromo-2'-fluorobenzyl)-3,4-dihydro-4-oxophthalazin-1-yl]-imidazolidine-2,4-dione] |  | 91% | 86% | 72% | potent aldose reductase inhibitors | effective in lowering sorbitol levels | 61% | to a significantly high degree | 20% | 36% | to a significantly high degree

From US5011840A, “Imidazolidinedione derivatives in diabetes treatment” (Pfizer Inc., priority 1989, dated 1991)
